Measurements published in patent US20140120166A1, “COMPOSITION OF ENTACOPONE” (INNOPHARMAX, INC., priority 2011, published 2014).

Assay: Dissolution test (FDA dissolution method for entacapone, USP paddle apparatus, HPLC analysis)
Format: physicochemical
Details: USP standard paddle stirring apparatus, 50 rpm, 900 mL pH 5.5 phosphate buffer solution, 120 minutes
Experimental: The dissolution test was conducted according to the drug dissolution method for entacapone obtained by searching the Dissolution Methods Database provided on the FDA website (http://www.accessdata.fda.gov/scripts/cder/dissolution/dsp_Search Results_Dissolutions.cfm). The dissolution test was carried out using a USP standard paddle stirring apparatus with a rotation speed of 50 rpm. The solvent used was 900 mL pH 5.5 phosphate buffer solution and the period of test was 120 minutes.

CCN(CC)C(=O)/C(C#N)=C/c1cc(O)c(O)c([N+](=O)[O-])c1 [entacapone, (E)-2-cyano-3-(3,4-dihydroxy-5-nitro-phenyl)-N,N-diethyl-2-propenamide]
Dissolution Rate (%): about 81.15%
